According to patent US6025491A, “Water soluble onium salt of taxo-diterpenoid” (The Scripps Research Institute, priority 1998, dated 2000):
Counter-ions that a name gives are not always drawn. Like-named read-outs stand apart in the source and are kept apart here.

Assays:
[1] = self-assembly: optical density at 340 nm and transmission electron microscopy; assay type: physicochemical
From the text: Transmission electron microscopy (TEM) confirmed the presence of supramolecular structures in these solutions. […] It is likely that the long term stability of these solutions is due, at least in part, to stabilization provided by this structured environment.

immunoglobulins = assay: displacement of MPT group by immunoglobulins; assay type: in vitro ADME
From the text: (§1) However, the release of taxol from taxol-2'-MPT can also be catalyzed by serum protein and by proteins having nucleophilic groups. […] Dialysis of the protein:taxol intermediate indicates a dissociation period of hours or days. Displacement of the MPT group by serum proteins seems to be specific for such serum proteins. […] The precise nature of the bonding between the protein and taxol has not been characterized. Scheme 2 illustrates alternative pathways for MPT release.

[2] = test system: A549 non-small cell lung adenocarcinoma xenograft; assay: efficacy in lung tumor xenograft nude mouse model; assay type: in vivo, nude mice (human lung carcinoma xenografts); conditions: I.P. day 1, 3 and 7; taxol 18.0 mg/kg in Cremaphor/D5W; 2 at 23.9 mg/kg
Experimental: The tumor model was generated from an ATCC A549 non-small cell lung adenocarcinoma cell line that was maintained under the standard cell proliferation conditions (37° C., 5% carbon dioxide in sterile air). Hemocytometer counted cells suspended in Hanks medium (Gibco, Grand Island N.Y.) were implanted S.C.

cervical carcinoma [3] = test system: cervical carcinoma
Experimental: (§4) More particularly, cells were plated on 96 well plates with the following controls: no cells and toxic control (1×10^-3 M SDS). The drug was added to the first set of wells and diluted via standard dilution method from the stock. Plates were incubated at 37° C., 5% CO2 in sterile air in an humidified incubator for 72 hours. An aliquot of 50 μL of a solution of 2,3-bis(methoxy-4-nitro-5-sulfophenyl)-5-[(phenylamino) carbonyl]-1H-tetrazolium hydroxide (XTT), 1 mg mL^-1, in phosphate buffered saline (PBS, 100 mM) was added to the wells. In the presence of viable cells, this colorless clear media is enzymatically altered to give a pink coloration. The plates were read at 450 nm using a plate reader. Percentage cytotoxicity was calculated using the formula: % C=1-(OD toxin)(OD growth control)^-1 (100).

metastatic melanoma [4] = test system: metastatic melanoma
Experimental: as §4

tubulin = assay: microtubule (tubulin) polymerization-depolymerization measurements; assay type: biochemical; conditions: for suppression of calcium chloride promoted depolymerization: 10^-6 M drug, 0.25 mM CaCl2, OD 340 nm; for suppression of calcium chloride promoted depolymerization / microtubule polymerization-depolymerization: tubulin 1.0 mg/mL; for microtubule polymerization-depolymerization: 10^-6 drug, 1.0 mM GTP, 0.25 mM CaCl2, 37° C.
Experimental: Tubulin polymerization-depolymerization measurements are illustrate in FIG. 3. Negative controls are shown with triangles; positive taxol controls are shown with diamonds; and taxol-2'-MPT, i.e., compound 2 is shown with dots.
More particularly, measurement were performed in 96 well plates at 37° C. following the protocol of R. Merlock and W. Wrasidlo (Analytical Biochemistry 1993, in press). Calcium chloride addition is indicated by the arrow. In each case, 1.0 mM GTP was used to promote the initial polymerization of tubulin. Negative control employed tubulin (1.0 mg/mL) alone, CaCl2 (0.25 mM) added after 20 minutes. Positive taxol control employed tubulin (1.0 mg/mL) with taxol (10^-6 M) and CaCl2 (0.25 mM) added after 20 minutes. The experimental taxol-2'-MPTemployed tubulin (1.0 mg/mL) with taxol-2'-MPT (10^-6) and CaCl2 (0.25 mM) added after 20 minutes. Turbidity was measured as optical density at 340 nm using a microplate reader (Molecular Devices Thermomax).

[5] = kinetics of taxol release from taxol-2'-MPT in aqueous solutions; assay type: physicochemical; conditions: 25° C.; for taxol release: over 11 minutes
Experimental: (§2) Under these conditions 20% of total is recovered. More particularly, Taxol-2'-MPT (2) was dissolved in the aqueous system with the aid of sonication for five minutes. Aliquots were then removed at the times shown and partitioned into methylene chloride to quench the reaction. Samples were then analyzed using a Waters Maxima HPLC instrument equipped with an autoinjector (3.9×300 mm C18 column equipped with a precolumn. The flow rate was 1.5 mL/minute. The eluent gradient A-B extended over 30 minutes. "A" was 80% 80 mM ammonium acetate, pH 6.0. "B" was 100% methanol. An ultraviolet diode array detector was employed. The ratio of compound 2 (Rf 16.2 min.) to taxol (compound 1, Rf 16.8 min.) remaining was determined from the relative areas of the peaks after normalization with previously determined calibration curves.

serum protein = assay: displacement of MPT group by serum protein, dialysis of protein:taxol intermediate; assay type: in vitro ADME; conditions: contacted with serum protein
[6] = stability measurements by HPLC (solid state and aqueous media); assay type: physicochemical; conditions: for stability duration: pH 6.0 to 7.3, 25° C.
Experimental: (§3) Due to a difference in retention time using our standard HPLC conditions (see FIG. 1) and differing ultraviolet absorption maxima (1280 /1254 =1.6 for 2 and 0.3 for 1), the stability of 2 was easily assayed by HPLC (FIG. 1). […] In phosphate buffered saline (PBS) or ammonium acetate--phosphate buffer systems of pH 6.0 to 7.3, 2 is stable at 25° C. for over 21 days. Taxol-2'-MPT (2) is, however, unstable in 5% HCl (pH 1.1) and brine.
as §2

human leukemia [7] = test system: human leukemia
Experimental: as §4

serum albumen = assay: displacement of MPT group by serum albumen; assay type: in vitro ADME
From the text: as §1

[8] = taxol release / breakdown of taxol-2'-MPT in plasma; assay type: in vitro ADME, human
Experimental: as §3, §2

non-serum proteins = assay: displacement of MPT group by non-serum proteins; assay type: in vitro ADME; conditions: tested non-serum proteins
From the text: as §1

[9] = Experimental: The solubility and partition coefficient data for 2 and taxol were determined using an HPLC method.
Solubility was found by forming a solution in water with the aid of sonication for five minutes, centrifugation of the samples, and injection of the supernatant. The values reported were normalized using calibration curves constructed for both compounds by preparing known concentrations in the range 1×10^-6 to 1×10^-3 M in methylene chloride and subjecting to HPLC analysis under the same conditions. […] Partition coefficients were determined by dissolving the compound in the organic phase, shaking the resulting solution with water for ten minutes, and analyzing each phase by HPLC as above.

[10] = background statement; cited from earlier work
human leukemia [11] = assay: cytotoxicity (XTT), human leukemia
Experimental: as §4

cervical carcinoma [12] = assay: cytotoxicity (XTT), cervical carcinoma
Experimental: as §4

[13] = formulated in Cremaphor (polyoxyethylated castor oil) and ethanol; cited from earlier work
metastatic melanoma [14] = assay: cytotoxicity (XTT), metastatic melanoma
Experimental: as §4

CC(=O)O[C@H]1C(=O)[C@@]2(C)[C@H]([C@H](OC(=O)c3ccccc3)[C@]3(O)C[C@H](OC(=O)[C@H](Oc4cccc[n+]4C)[C@@H](NC(=O)c4ccccc4)c4ccccc4)C(C)=C1C3(C)C)[C@]1(OC(C)=O)CO[C@@H]1C[C@@H]2O [taxol-2'-MPT, Taxol-2'-MPT (methylpyridinium tosylate)]
critical concentration for exponential increase in optical density (critical aggregation concentration) ([1]; OD 340 nm, buffered solutions): 400 µM | diameter of fibrillar aggregates ([1]; TEM, fibrillar structure): ca. 80 Å | helical twist of fibrillar aggregates ([1]; TEM, fibrillar structure): about 7 | length of fibrillar aggregates ([1]; TEM, fibrillar structure): up to 800 Å | diameter of spherical structures ([1]; TEM, freshly sonicated solutions): about 50 Å | concentration above which haze and diffuse light scattering appear ([1]; buffered solutions): greater than 1×10^-3 M | appearance of water solutions ([1]; water, all concentrations examined): optically clear | effectiveness in displacing the MPT group (immunoglobulins): particularly effective | control of tumor growth compared with taxol [2]: at least comparable to that of taxol | cytotoxicity level (cervical carcinoma [3]): Extremely high | cytotoxicity level (metastatic melanoma [4]): Extremely high | suppression of calcium chloride promoted depolymerization (tubulin): not by taxol-2'-MPT | microtubule polymerization-depolymerization (tubulin; listed as 2): does not affect the tubulin-microtubule equilibria | microtubule polymerization-depolymerization (tubulin; listed as taxol-2'-MPT (2)): very similar to GTP-saline controls and drastically different from taxol | binding to tubulin in the manner of taxol (tubulin; buffered aqueous environment): does not appear to bind to tubulin in the manner of taxol | taxol release ([5]; 5% dextrose): no taxol release is observed | stability in water and aqueous buffer solutions [5]: stable in water and aqueous buffer solutions | taxol release ([5]; pH 6.2 phosphate buffered saline): no taxol release is observed | taxol release ([5]; sterile water): no taxol release is observed | reaction with serum protein (serum protein): observed to displace its MPT group and form a protein:taxol intermediate | stability ([6]; 5% HCl (pH 1.1)): unstable | stability duration ([6]; ammonium acetate--phosphate buffer systems): over 21 days | stability ([6]; aqueous media at physiological pH and ion strength): essentially completely stable | stability ([6]; brine): unstable | stability, onset of slow degradation ([6]; in 1.5% saline): > 4 days | stability, onset of slow degradation ([6]; in 5% dextrose): > 4 days | stability, onset of slow degradation ([6]; in water): > 4 days | stability duration ([6]; phosphate buffered saline (PBS)): over 21 days | cytotoxicity level (human leukemia [7]): Extremely high | effectiveness in displacing the MPT group (serum albumen): particularly effective | breakdown in human plasma ([8]; incubated at 37° C. with human plasma): breaks down rapidly | time to complete conversion of 2 into taxol ([8]; plasma, methylene chloride extraction, 25° C.): ≤ 10 min | taxol discharge in sera ([8]; sera): rapidly discharges taxol in sera | activity in displacing the MPT group (non-serum proteins): seemed to lack this activity | solubility in water compared with taxol [9]: significantly more soluble in water than the parent taxol

CC(=O)O[C@H]1C(=O)[C@@]2(C)[C@H]([C@H](OC(=O)c3ccccc3)[C@]3(O)C[C@H](OC(=O)[C@H](O)[C@@H](NC(=O)c4ccccc4)c4ccccc4)C(C)=C1C3(C)C)[C@]1(OC(C)=O)CO[C@@H]1C[C@@H]2O [taxol]
suppression of calcium chloride promoted depolymerization (tubulin): suppressed by taxol | microtubule stabilization by taxol recovered from plasma treated with 2 (tubulin; taxol recovered from human plasma treated with 2): exhibited the expected microtubule stabilization | water solubility [10]: less than 1.5×10^-6 M | cytotoxicity level (human leukemia [11]): Extremely high | cytotoxicity level (cervical carcinoma [12]): Extremely high | side effects of formulation [13]: hypersensitivity reactions | Partition Coefficient [octanol]/[water] [9]: > 10000 | Solubility in Water ([9]; water): < 1.5 µM | cytotoxicity level (metastatic melanoma [14]): Extremely high
